The text below walks through data of US20180169045A1, “AMINO ACID COMPOSITIONS AND METHODS FOR THE TREATMENT OF LIVER DISEASES” (AXCELLA HEALTH INC., priority 2016, published 2018).

For assay [1], the system named is Primary human hepatic stellate cells. Put plainly: TGFβ1-induced Col1a1 gene expression in primary human hepatic stellate cells (RT-qPCR). The assay is classed as cell-based. The following applies: for Col1a1 gene expression, in words: primary human hepatic stellate cells from three donors, 3 ng/mL TGFβ1, 24 h. As for the experimental part: Primary human hepatic stellate cells were obtained from Samsara Sciences based on the following criteria for selecting donors: adult age (between 18 and 50 years), normal BMI (>18.5 and <25), and absence of confounding liver disease. Cells grown in Complete HSC Medium to ˜80% confluence in T75 or T150 flasks below passage 10 were seeded into sterile, collagen I coated, 96-well optical plastic microplates (ThermoScientific, 152036) at 6000 cells per well ([…]) and incubated overnight at 37° C., 5% CO2 in a humidified incubator in DMEM with 2% Fetal Bovine Serum and 1% Antibiotic-Antimycotic.
After the overnight incubation, plates were removed from the incubator and the medium was gently pipetted off and washed twice with 150 μL per well DPBS. The DPBS was removed and the pretreatment medium (±single amino acid dropout, 1×HMDB DMEM+1% Antibiotic-Antimycotic, 10 mM HEPES, ±supplemental amino acid dose; see experiment for medium composition) was applied to the cells at 150 μL per well. Plates were returned to the incubator for 10.5 hours.
After 10.5 hour pretreatment, the medium was removed from the cells, and the same pretreatment medium, now supplemented with 3 ng/mL TGFβ1, was applied. Each plate contained 3 ng/mL TGFβ1 in 1× human plasma amino acid (HMDB or PAA) concentration medium, 0 ng/mL in 1×HMDB, and 3 ng/mL TGFβ1+20 μM Silybin in 1×HMDB to serve as controls. Plates were then incubated for 24 hours at 37° C., 5% CO2.
After 24 hour stimulus, supernatant was removed and frozen at −80° C. in two separate aliquots. The cells were then washed with 125 μL per well Buffer FCW (FastLane Cell Multiplex NR Kit, Qiagen, 216713). The wash buffer was immediately removed and 50 μL of Cell Processing Mix (containing genomic DNA Wipeout buffer) was applied to lyse cells, incubating for 10 minutes at room temperature. RNA lysate was then transferred to 96-well qPCR plates, sealed, and gDNA was digested on thermal cycler at 75° C. for 5 minutes. RNA lysate was frozen at −80° C.
Each 20 μL one-step RT-qPCR reaction contained 4 μL of RNA lysate. Gene expression of Col1a1, Timp2, and Gapdh were multiplexed using the HEX, Cy5, and FAM fluorescent channels, respectively, with commercially available primer-probe mixes (the Human Col1a1 Primer-Probe Set, HEX; the Human Timp2 Primer-Probe Set, Cy5; and the Human Gapdh Primer-Probe Set, FAM from IDT). Gene expression was evaluated using the ΔΔCq method within each single amino acid dropout and supplementation by normalizing to its own 1×HMDB concentration.
(Quantitative PCR measures a nucleic acid by following its amplification.)

In assay [2] the test system is human primary hepatocytes. As to the kind of experiment: MCP1/CCL2 secretion in primary human hepatocytes exposed to free fatty acids + TNFα (ELISA). The assay is classed as cell-based. The following applies: primary human hepatocytes from two healthy donors, 24 h. As for the experimental part: Hepatocyte lipotoxicity appears to be a central driver of hepatic cellular injury via oxidative stress and endoplasmic reticulum (ER) stress. The ability of amino acids to influence steatosis (lipid accumulation) and inflammation in hepatocytes was assessed using human primary hepatocytes (Lonza, TRL).
Primary hepatocytes lot nos. from two healthy human donors were seeded on day 0 at density of 6e04 cells in 96 well optical microplates (Thermofisher) in hepatocyte plating media (William's E medium (Gibco) supplemented with 10% heat-inactivated FBS (Atlanta Bio), 2 mM Glutamax (Gibco), 1×ITS plus (R&D systems), and 0.2% Primocin (InVivoGen) and incubated for 6 hours at 37° C., 5% CO2. After 6 hours, cells were washed twice with 150 ul William's E medium and incubated overnight at 37° C., 5% CO2 with serum-free hepatocytes culture media (Hepatocytes defined medium (Corning)) supplemented with 5 ug human recombinant EGF (Corning), 2 mM Glutamax (Gibco), and 1× Penicillin/Streptomycin. On day 1, cells were washed twice with 150 μL per well William's E medium (Gibco) and incubated for 24h in the hepatocyte culture media in the same conditions described above.
On day 2, cells were washed twice with 150 ul DPBS 1× (Gibco) and maintained in amino acid-free WEM (US Biologicals) containing a defined custom amino acid concentration based on the mean physiological concentrations in blood. The values are published in the Human Metabolome Database (Wishart D S, Tzur D, Knox C, et al., HMDB: the Human Metabolome Database. Nucleic Acids Res. 2007 January; 35(Database issue):D521-6. 17202168; which is hereby incorporated by reference in its entirety). This custom media is supplemented with 11 mM Glucose, 0.272 mM Sodium Pyruvate, and a dose curve of defined amino acid compositions (i.e., vehicle, LIVRQ+N-acetylcysteine, LIVRQ, RQ+N-acetylcysteine, N-acetylcysteine alone, LIV, or individually with L-Leucine, L-Isoleucine, L-Valine, L-Arginine, L-Glutamine, and L-Cysteine) at various ranges of concentrations. Cells were maintained in this defined media for 24 hours at 37° C., 5% CO2.
After pre-treatment, cells were exposed to free fatty acids (FFA) at 250 uM with a ratio of 2:1 (Oleate:Palmitate) supplemented with TNF-α (Thermofisher) at 1 ng/ml or vehicle. Cells were incubated with the FFAs mixture and the different amino acids combinations for 24 hours at 37° C., 5% CO2. After 24 hours incubation, media was removed for cytokine analysis and replaced by fresh media containing the same stimulus conditions and amino acid concentrations. Cells were incubated for an additional 48 hours for a total of 72 hours of FFA and TNFα stimulation.
Human CCL2 (MCP-1) was measured by ELISA (Human […] DuoSet ELISA, R&D Systems) at 1/5 or 1/10 dilution in 1× Reagent Diluent (Reagent Ancillary Kit 2, R&D Systems). Data were normalized to the specific per well cell density determined by nuclei count stained by Hoechst 3342 (Life technologies) in the fluorescence microscopy described below.

`CC(=O)N[C@@H](CS)C(=O)O` [N-acetylcysteine]: the “Col1a1 gene expression, in words” value in assay [1] is on record as “significantly reduced Col1a1 gene expression in all three donors”. Besides, the “MCP1/CCL2 secretion, in words” value in assay [2] is listed as “significantly decrease”.

With `N=C(N)NCCC[C@H](N)C(=O)O` [Arginine, L-Arginine], in assay [1], the “Col1a1 gene expression, in words” value was “did not significantly change”. Further, the “MCP1/CCL2 secretion, in words” value in assay [2] is “increased”.

`CC[C@H](C)[C@H](N)C(=O)O` [Isoleucine, L-Isoleucine]: in assay [1], the “Col1a1 gene expression, in words” value was “did not significantly change”. The “MCP1/CCL2 secretion, in words” value in assay [2] is given as “did not have an effect”.

Turning to `CC(C)C[C@H](N)C(=O)O` [Leucine, L-Leucine], the “Col1a1 gene expression, in words” value in assay [1] was “did not significantly change”. The “Col1a1 Fold Expression Relative to Control, Mean” value in assay [1] (second donor, normalized to Gapdh, Conc. 153 μM (baseline)) was 1.01 fold. The “MCP1/CCL2 secretion, in words” value in assay [2] is given as “did not have an effect”.

As to `NC(=O)CC[C@H](N)C(=O)O` [Glutamine, L-Glutamine], the “Col1a1 gene expression, in words” value in assay [1] is on record as “decreased Col1a1 gene expression in two of three donors”. For the same compound, the “MCP1/CCL2 secretion, in words” value in assay [2] is listed as “significantly decrease”.

On to `CC(C)[C@H](N)C(=O)O` [Valine, L-Valine], for which the “Col1a1 gene expression, in words” value in assay [1] was “did not significantly change”. In addition, in assay [2], the “MCP1/CCL2 secretion, in words” value is “did not have an effect”.
